The values below come from patent US9492471B2, “Methods of treating a disease or disorder associated with Bruton'S Tyrosine Kinase” (Celgene Avilomics Research, Inc., priority 2013, dated 2016).

Read-outs that look alike come from different tables or passages of the source.

Common to all, as to experiment: HotSpot kinase profiling
Holding throughout (type): biochemical

One test has as its target T1, LCK (Homo sapiens, UniProt P06239).
T1 construct: purchased Reaction Biology Corp
The gist of the method:
(§1)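 Activity is measured by radiolabel transfer captured on P81 filters after a 2 h room-temperature reaction of kinase, substrate and cofactors. Values are percent inhibition against DMSO.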

The next test deals with T2, PAK1 (Homo sapiens, UniProt Q13153).
T2 construct: purchased Reaction Biology Corp
The gist of the method:
as §1

The next test concerns the target T3, PDGFRa (Homo sapiens, UniProt P16234).
T3 construct: purchased Reaction Biology Corp
In short, it runs like this: as §1

The target of another test is T4, SNARK/NUAK2 (Homo sapiens, UniProt Q9H093).
T4 construct: purchased Reaction Biology Corp
T4 sequence (Q9H093 1-628): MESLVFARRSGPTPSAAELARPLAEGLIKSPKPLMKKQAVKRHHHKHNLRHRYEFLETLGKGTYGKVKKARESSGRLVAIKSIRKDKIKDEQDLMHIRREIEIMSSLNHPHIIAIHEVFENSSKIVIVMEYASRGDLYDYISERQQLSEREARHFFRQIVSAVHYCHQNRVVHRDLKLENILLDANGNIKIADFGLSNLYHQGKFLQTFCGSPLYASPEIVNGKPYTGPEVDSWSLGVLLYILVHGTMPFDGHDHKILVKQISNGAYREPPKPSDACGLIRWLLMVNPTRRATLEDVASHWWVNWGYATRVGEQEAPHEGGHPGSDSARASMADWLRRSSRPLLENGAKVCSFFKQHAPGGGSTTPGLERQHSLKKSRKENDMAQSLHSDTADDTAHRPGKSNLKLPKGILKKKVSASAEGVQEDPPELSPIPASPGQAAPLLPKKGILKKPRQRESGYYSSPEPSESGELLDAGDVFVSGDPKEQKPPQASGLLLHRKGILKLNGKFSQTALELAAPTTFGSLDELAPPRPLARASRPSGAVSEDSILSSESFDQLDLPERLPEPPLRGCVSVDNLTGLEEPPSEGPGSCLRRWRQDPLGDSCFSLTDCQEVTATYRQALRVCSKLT
In short, it runs like this: as §1

The target in another test is T5, SSTK/TSSK6 (Homo sapiens, UniProt Q9BXA6).
T5 construct: purchased Reaction Biology Corp
In short, it runs like this:
as §1

The target in another test is T6, TAOK3/JIK (Homo sapiens, UniProt Q9H2K8).
T6 construct: purchased Reaction Biology Corp
T6 sequence (Q9H2K8 1-898): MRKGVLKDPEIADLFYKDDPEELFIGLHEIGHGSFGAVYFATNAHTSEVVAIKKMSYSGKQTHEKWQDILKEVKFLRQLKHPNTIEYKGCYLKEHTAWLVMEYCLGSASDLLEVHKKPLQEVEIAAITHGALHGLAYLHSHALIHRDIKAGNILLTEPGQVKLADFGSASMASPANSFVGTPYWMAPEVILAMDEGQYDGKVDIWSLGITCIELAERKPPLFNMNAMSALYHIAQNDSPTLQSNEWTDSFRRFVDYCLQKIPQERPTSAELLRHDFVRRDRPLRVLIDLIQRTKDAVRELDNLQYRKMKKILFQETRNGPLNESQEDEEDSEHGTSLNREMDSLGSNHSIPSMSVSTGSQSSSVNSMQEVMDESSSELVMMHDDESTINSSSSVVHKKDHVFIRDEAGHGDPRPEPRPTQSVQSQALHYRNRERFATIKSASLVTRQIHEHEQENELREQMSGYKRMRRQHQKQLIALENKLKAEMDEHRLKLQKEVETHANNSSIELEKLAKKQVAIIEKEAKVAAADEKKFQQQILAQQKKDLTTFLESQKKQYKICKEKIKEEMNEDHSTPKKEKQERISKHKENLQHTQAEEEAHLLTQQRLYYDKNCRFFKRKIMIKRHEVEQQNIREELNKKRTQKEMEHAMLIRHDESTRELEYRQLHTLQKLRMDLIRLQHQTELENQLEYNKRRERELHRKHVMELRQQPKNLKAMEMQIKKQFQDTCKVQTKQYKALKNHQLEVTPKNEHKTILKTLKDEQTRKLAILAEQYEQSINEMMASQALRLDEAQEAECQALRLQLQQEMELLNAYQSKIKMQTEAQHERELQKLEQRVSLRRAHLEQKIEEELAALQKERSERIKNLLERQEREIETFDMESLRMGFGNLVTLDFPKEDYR
In short, it runs like this:
as §1

Setting [1] is: read-out: % Enzyme Activity (relative to DMSO controls) Run 1.
The mark [2] stands for this setting: read-out: % Enzyme Activity (relative to DMSO controls) Run 2.

T2 sequence (Q13153 whole entry): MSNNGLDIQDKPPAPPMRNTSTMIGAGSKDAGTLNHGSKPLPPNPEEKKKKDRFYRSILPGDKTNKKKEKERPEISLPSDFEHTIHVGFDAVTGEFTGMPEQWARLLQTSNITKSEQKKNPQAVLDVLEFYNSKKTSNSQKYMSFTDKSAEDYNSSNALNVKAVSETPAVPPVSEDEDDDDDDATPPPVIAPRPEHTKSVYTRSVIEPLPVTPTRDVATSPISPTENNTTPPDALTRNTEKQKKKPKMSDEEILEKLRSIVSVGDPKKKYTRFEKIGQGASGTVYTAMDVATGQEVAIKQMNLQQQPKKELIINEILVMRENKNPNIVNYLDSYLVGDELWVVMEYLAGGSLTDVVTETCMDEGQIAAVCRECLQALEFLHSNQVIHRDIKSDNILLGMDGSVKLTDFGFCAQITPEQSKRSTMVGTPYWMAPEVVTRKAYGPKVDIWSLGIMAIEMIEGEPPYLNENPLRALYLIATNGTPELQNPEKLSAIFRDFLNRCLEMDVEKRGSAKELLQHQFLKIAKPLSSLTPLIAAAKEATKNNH
T3 sequence (P16234 24-1089): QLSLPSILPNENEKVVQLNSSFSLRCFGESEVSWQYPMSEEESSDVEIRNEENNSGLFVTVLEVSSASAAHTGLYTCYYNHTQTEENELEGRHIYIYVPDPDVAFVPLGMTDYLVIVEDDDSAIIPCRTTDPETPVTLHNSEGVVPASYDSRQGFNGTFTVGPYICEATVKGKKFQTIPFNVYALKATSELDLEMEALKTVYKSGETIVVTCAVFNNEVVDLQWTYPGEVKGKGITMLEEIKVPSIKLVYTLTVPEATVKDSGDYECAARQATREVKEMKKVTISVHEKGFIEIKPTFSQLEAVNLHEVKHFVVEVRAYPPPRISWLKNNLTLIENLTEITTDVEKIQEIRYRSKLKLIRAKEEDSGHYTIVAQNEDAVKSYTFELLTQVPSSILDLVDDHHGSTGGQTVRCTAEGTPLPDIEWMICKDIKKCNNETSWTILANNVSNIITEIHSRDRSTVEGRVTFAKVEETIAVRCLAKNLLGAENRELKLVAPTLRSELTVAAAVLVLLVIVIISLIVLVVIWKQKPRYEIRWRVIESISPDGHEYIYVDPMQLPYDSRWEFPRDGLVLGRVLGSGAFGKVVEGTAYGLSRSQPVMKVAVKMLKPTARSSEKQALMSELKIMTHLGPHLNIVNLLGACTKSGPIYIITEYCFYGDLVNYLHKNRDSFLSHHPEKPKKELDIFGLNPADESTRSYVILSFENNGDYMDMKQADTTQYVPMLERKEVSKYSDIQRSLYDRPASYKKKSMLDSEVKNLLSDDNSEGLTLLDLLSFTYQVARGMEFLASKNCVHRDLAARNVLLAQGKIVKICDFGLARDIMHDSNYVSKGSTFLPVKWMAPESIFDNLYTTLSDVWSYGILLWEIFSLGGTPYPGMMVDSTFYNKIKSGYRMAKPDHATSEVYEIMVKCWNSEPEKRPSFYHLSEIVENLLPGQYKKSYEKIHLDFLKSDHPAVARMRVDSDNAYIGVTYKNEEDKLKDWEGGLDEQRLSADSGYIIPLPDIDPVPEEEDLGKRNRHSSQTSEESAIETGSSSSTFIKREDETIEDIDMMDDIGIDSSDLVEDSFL
T1 sequence (P06239 whole entry): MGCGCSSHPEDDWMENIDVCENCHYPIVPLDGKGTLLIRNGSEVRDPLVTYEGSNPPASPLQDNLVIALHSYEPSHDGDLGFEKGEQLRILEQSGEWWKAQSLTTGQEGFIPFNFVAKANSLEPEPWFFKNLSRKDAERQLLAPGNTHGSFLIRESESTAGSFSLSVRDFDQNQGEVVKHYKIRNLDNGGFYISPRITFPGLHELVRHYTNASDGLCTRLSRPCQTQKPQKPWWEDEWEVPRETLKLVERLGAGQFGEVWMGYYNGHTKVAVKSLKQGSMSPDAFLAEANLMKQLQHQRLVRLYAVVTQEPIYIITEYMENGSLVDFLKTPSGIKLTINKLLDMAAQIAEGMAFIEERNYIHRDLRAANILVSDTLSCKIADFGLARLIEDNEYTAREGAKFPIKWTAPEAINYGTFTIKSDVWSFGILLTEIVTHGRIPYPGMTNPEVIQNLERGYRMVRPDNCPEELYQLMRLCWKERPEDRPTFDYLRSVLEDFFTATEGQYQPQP
T5 sequence (Q9BXA6 whole entry): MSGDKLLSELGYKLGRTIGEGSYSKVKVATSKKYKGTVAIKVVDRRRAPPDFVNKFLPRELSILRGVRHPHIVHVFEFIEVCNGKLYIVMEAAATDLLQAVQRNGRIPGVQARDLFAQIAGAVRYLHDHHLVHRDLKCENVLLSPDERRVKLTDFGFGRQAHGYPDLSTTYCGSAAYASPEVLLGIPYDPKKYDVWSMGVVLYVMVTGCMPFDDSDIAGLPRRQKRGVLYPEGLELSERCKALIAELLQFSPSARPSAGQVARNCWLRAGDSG

Consider `C=CC(=O)Nc1cccc(Nc2nc(Nc3ccc(OCCOC)c(F)c3)ncc2F)c1` [Compound 2], for which the inhibition (in general, the relative decrease from the control value, in per cent) at 3 µM was 36% at LCK; 2.58% at PAK1; 36.6% at PDGFRa; 15.7% at SNARK/NUAK2; -3.6% against SSTK/TSSK6; 7.74% against TAOK3/JIK. The remaining activity at 3 µM at LCK (setting [1]) was found to be 64.7%; at LCK (setting [2]) it was 63.4%; at PAK1 (setting [1]), 96.3%; on PAK1 (setting [2]), 98.6%; at PDGFRa (setting [1]), 63.9%; on PDGFRa (setting [2]), 62.8%. Also, the remaining activity at 3 µM at SNARK/NUAK2 (setting [1]) stood at 83.7%; at SNARK/NUAK2 (setting [2]), 84.9%; on SSTK/TSSK6 (setting [1]) it was 107%; at SSTK/TSSK6 (setting [2]) it was 99.8%; at TAOK3/JIK (setting [1]) it was 94.5%; at TAOK3/JIK (setting [2]), 90%.
